Assay results from PubChem BioAssay AID1419 (Emory University Molecular Libraries Screening Center, 2008).
pIC50: −log10 of the molar value. Active and inactive are the calls of the source. The rule behind the calls is not given here.

Experiment: blockers of an Epstein-Barr virus protein-peptide interaction – biochemical, fluorescence polarization, dose response (AID 1419)
Conditions: cell-free protein-peptide binding, 2 h; for fold change: measured here: P channel fold over control, at 54 µM

For COC(=O)c1cc(C(=O)c2ccc(Cl)cc2)n2c(=O)/c(=C\N(C)C)sc12, the IC50 was 51.9 µM (inactive) and the fold change was 1.56.

With CC(C)OC(=O)c1c2c(n3ccccc13)C(=O)c1ccccc1C2=O the pIC50 was 5.41 and the fold change was 2.93.

With CCOC(=O)CC(=O)CSc1nc(-c2cccnc2)ccc1C#N the IC50 was > 54 µM (inactive) and the fold change was 1.63.

In the case of COc1cc(/C=C2\SC(=O)N(Cc3ccc(F)cc3)C2=O)cc([N+](=O)[O-])c1O, the IC50 was > 54 µM (inactive) and the fold change was 0.843.

With CCOC(=O)c1cc2n(c1/N=C/N(C)C)-c1ccccc1C2=O the pIC50 was > 6.38 and the fold change was 42.3.

In the case of CCCCOc1[nH]c2nc(-c3ccco3)n(Cc3ccco3)c(=N)c2c1C#N, the IC50 was > 54 µM (inactive) and the fold change was 1.17.

For C=C1c2cc(OC)ccc2NC(=O)N1CC, the pIC50 was 5.05 and the fold change was 1.91.

With Cc1ccc(C2=N/C(=C\c3c(C)nn(-c4ccccc4)c3N3CCCC3)C(=O)O2)cc1 the pIC50 was 5.24 and the fold change was 6.13.

For COc1ccc(NC(=O)C2Cc3ccccc3CN2C(=O)c2ccccc2)cn1 (centres undefined), the pIC50 was 5.07 and the fold change was 3.29.

For Cc1c(C#N)c2ncnc(-c3ccccc3)c2n1-c1ccccc1, the IC50 was > 54 µM (inactive) and the fold change was 1.02.

In the case of COC(=O)CN1C(=O)N(c2ccccc2)C(N(O)C(=O)Nc2ccccc2)C1(C)C (centres undefined), the IC50 was > 54 µM (inactive) and the fold change was 1.

For Cc1ccc(S(=O)(=O)C(C#N)c2nc3ccccc3nc2N2CCCC2)cc1C (centres undefined), the IC50 was > 54 µM (inactive) and the fold change was 1.26.

Molecule CCCCN1C(=O)/C(=C/C=C2\Oc3ccccc3N2CC)SC1=S has a pIC50 of 5.27 and a fold change of 13.9.

For COc1ccc(-n2cccc2/C=C2\C(=N)N3N=C(c4ccco4)SC3=NC2=O)cc1, the pIC50 was 5.55 and the fold change was 1.17.

Molecule CC1=CC(=C(C#N)c2nc3ccccc3s2)C=C(C)N1c1ccc(F)cc1F has a pIC50 of 5.40 and a fold change of 11.2.

With O=C(O)COc1ccc(/C=N/NC(=O)c2ccc(-c3csc(Nc4ccc(Cl)cc4)n3)cc2)cc1 the pIC50 was 4.83 and the fold change was 1.13.

In the case of CCOC(=O)c1sc2nc3c(SCCC(=O)O)cc(C(=O)c4cc(OC)ccc4O)cn3c(=O)c2c1C, the IC50 was > 54 µM (inactive) and the fold change was 1.04.

In the case of CCN(CC)c1ccc2oc(=O)c(C)nc2c1, the pIC50 was 5.32 and the fold change was 9.58.

In the case of O=C(Cn1c2ccccc2c(=O)c2ccccc21)N/N=C/c1ccc(N2CCCC2)c([N+](=O)[O-])c1, the IC50 was > 54 µM (inactive) and the fold change was 0.76.

With Cn1cccc1/C=C1/C(=O)NC(=O)N(Cc2ccc(F)cc2)C1=O the IC50 was > 54 µM (inactive) and the fold change was 1.04.

O=C1C(=Cc2cccn2-c2ccc(O)cc2)C(=O)c2ccccc21 showed a pIC50 of 5.71 and a fold change of 4.4.

For Cc1ccc(C(NC(=O)C2CCCCC2)c2c(O)ccc3ccccc23)cc1 (centres undefined), the IC50 was > 54 µM (inactive) and the fold change was 1.03.

Cc1cc(=O)oc(C)c1C(=O)Nc1ccc2ncccc2c1 showed a pIC50 of 5.53 and a fold change of 5.89.

CCCN(CCC)S(=O)(=O)c1ccc(C(=O)OCCN2C(=O)c3cccc4c(N5CCOCC5)ccc(c34)C2=O)cc1 gave a pIC50 of 5.82 and a fold change of 96.6.

For COc1ccccc1Nc1nc2ccc(C)cc2cc1C#N, the pIC50 was 4.78 and the fold change was 2.74.

COc1ncnc2c1NC1=C(S2)C(=NCCC(=O)O)CC(C)(C)C1 gave a pIC50 of 6.03 and a fold change of 8.12.

With COC(=O)c1cc(NC(=O)c2ccccc2)c(=O)oc1/C=C/Nc1ccc(Oc2ccccc2)cc1 the pIC50 was 5.85 and the fold change was 22.

With CCCN1C(=O)/C(=C/C=C2\N(CC)c3ccccc3C2(C)C)SC1=S the pIC50 was 6.02 and the fold change was 12.

In the case of Cc1nnc(NC(=O)CSc2cn(CCNC(=O)c3ccccc3)c3ccccc23)s1, the IC50 was > 54 µM (inactive) and the fold change was 1.05.

CCOC(=O)/C(=C/c1ccc(N2CCC(c3ccccc3)=N2)cc1)C(C)=O gave a pIC50 of 5.42 and a fold change of 11.8.

With CCOc1ccc2nc(N3C(=O)/C(=C/c4ccc(Cl)cc4)NC3=S)sc2c1 the IC50 was > 54 µM (inactive) and the fold change was 1.35.

CCn1c(CSc2n[nH]c(N)n2)nc2cc(C(=O)O)ccc21 gave a pIC50 of 5.38 and a fold change of 5.1.

Work on Nc1c(O)ccc2c1C(=O)c1ccccc1C2=O yielded a pIC50 of 5.39 and a fold change of 2.59.

For COC(OC)c1ccnc(-c2ccc(OC(=O)c3cccs3)cc2)n1, the IC50 was > 54 µM (inactive) and the fold change was 0.937.

Molecule Nc1cc2c3c(cccc3c1)C(=O)N(CCN1CCCC1)C2=O has a pIC50 of 5.32 and a fold change of 3.92.

O=S(=O)([N-]c1nc2ccccc2nc1-[n+]1ccc(-c2ccncc2)cc1)c1ccccc1 showed a pIC50 of 5.04 and a fold change of 3.54.

In the case of O=C(O)c1ccccc1C1=Nc2ccc(O)cc2Oc2cc(O)ccc21, the pIC50 was > 6.38 and the fold change was 14.2.

CCc1nn2c(=O)cc(COc3ccc(/C=C4\C(=N)N5N=C(C)SC5=NC4=O)cc3)nc2s1 showed a pIC50 of 4.78 and a fold change of 1.14.

For CCN(CC)C(=O)COC(=O)c1cc(-c2ccco2)nc2ccccc12, the pIC50 was 4.55 and the fold change was 1.44.

With COc1ccc(-c2csc(NC(=O)CSc3nc(C)nc4sc(C(=O)O)c(C)c34)n2)cc1 the IC50 was > 54 µM (inactive) and the fold change was 0.987.

With CC(=O)c1ccc2noc(-c3ccc(F)cc3)c2c1 the pIC50 was 5.48 and the fold change was 4.39.

With Cc1ccc(S(=O)(=O)Nc2ccc(N3CCN(C)CC3)nc2)cc1 the pIC50 was 5.44 and the fold change was 2.82.

For Nc1ccc2nc3c(=O)n(C4CCCCC4)c(=O)[nH]c3nc2c1, the pIC50 was > 6.38 and the fold change was 101.

For Cn1c(=O)c(NCCc2ccccc2)c2c3c(cccc31)C(=O)c1ccccc1-2, the pIC50 was > 6.38 and the fold change was 226.

In the case of CC1=CC(=C(C#N)c2nc3ccccc3s2)C=C(C)N1Cc1ccco1, the pIC50 was 5.42 and the fold change was 15.7.

In the case of OCCCc1nc2n(n1)C(c1cccs1)C=C(c1ccc(Br)cc1)N2 (centres undefined), the pIC50 was > 6.38 and the fold change was 37.6.

With COc1ccc(C2C=C(c3ccc(Br)s3)Nc3ncnn32)cc1OC (centres undefined) the pIC50 was > 6.38 and the fold change was 24.3.

O=c1c(O)cccc2cc(O)c(O)c(O)c12 showed a pIC50 of 5.55 and a fold change of 1.86.

COc1cc(/C=C2\SC(=O)N(c3ccc(Cl)cc3)C2=O)cc([N+](=O)[O-])c1O gave a pIC50 of 5.34 and a fold change of 1.13.

In the case of Cc1c2ccccc2nc2c(F)c(NC(C)C)c(F)c(F)c12, the pIC50 was > 6.38 and the fold change was 4.96.

In the case of O=C(Nc1cccc([N+](=O)[O-])c1)c1cnccn1, the IC50 was > 54 µM (inactive) and the fold change was 1.09.

Molecule CNc1cccc2c1C(=O)c1ccccc1C2=O has a pIC50 of 5.55 and a fold change of 2.44.

Molecule O=C(/C(=C(\[O-])c1ccccc1)[n+]1ccc2ccccc2c1)c1ccc(Cl)cc1 has a pIC50 of 5.08 and a fold change of 2.35.

For COc1cc(C2CC(C(F)(F)F)n3ncc(C(=O)O)c3N2)cc(OC)c1OC (centres undefined), the IC50 was > 54 µM (inactive) and the fold change was 0.997.

For Cc1ccc(C(=O)NN2C(=O)/C(=C/c3cn(C)c4ccccc34)SC2=S)cc1, the pIC50 was 5.47 and the fold change was 6.95.

Cc1ccc(N2C(=O)C3C(C(=O)c4ccccc4)=NN(c4ccccc4)C3C2=O)cc1 (centres undefined) gave a pIC50 of 5.14 and a fold change of 8.5.

CC(C)[C@H]1C(=O)N2CCC[C@H]2[C@]2(O)O[C@](NC(=O)[C@@H]3C=C4c5cccc6[nH]cc(c56)C[C@H]4N(C)C3)(C(C)C)C(=O)N12 showed a pIC50 of 5.44 and a fold change of 5.11.

In the case of CC(=O)[C@@H]1[C@@H]2C(=O)N(C3CCCCC3)C(=O)[C@@H]2C2c3ccccc3C=CN21 (some centres undefined), the IC50 was 51.9 µM (inactive) and the fold change was 2.

For C#CCOC(=O)/C(=C/C=C/c1ccccc1)NC(=O)c1ccccc1, the IC50 was > 54 µM (inactive) and the fold change was 1.01.

Molecule CCOC(=O)c1c(/N=C/c2c(O)n(-c3ccccc3F)c(=S)[nH]c2=O)sc2c1CCCC2 has a pIC50 of 5.53 and a fold change of 29.6.

O=C1C(Br)=Cc2cccc3cccc1c23 gave a pIC50 of 5.70 and a fold change of 7.55.

For Cc1ccc(C)n1-c1cc(S(=O)(=O)N2CCOCC2)ccc1N1CCCC1, the IC50 was > 54 µM (inactive) and the fold change was 1.02.
